According to patent US6989263B1, “Method for identifying and using compounds that inactivate HIV-1 and other retroviruses by attacking highly conserved zinc fingers in the viral nucleocapsid protein” (The United States of America as represented by the …, priority 1994, dated 2006):
Entries after “also recorded” stand apart in the source; their conditions may differ.

Target: T1, p7NC (Human immunodeficiency virus type 1 group M subtype B, UniProt P05888)
T1 construct: The NC protein of HIV-1 (MN) p7NC was expressed in E. coli; made in house; host or cells: E. coli (vector pMAL-c)
Experiment: HPLC analysis of reaction products of purified p7NC with reagent
Type: biochemical, HIV-1
Parameters: key to Protein (HPLC): reaction products / Protein (HPLC): reaction rate: formation of non-native, intra-protein disulfide links (designated “Disulfides”); some of the reagents form adducts with the cysteine residues as well (designated “Adducts”); slow: “Slow” reactions are those in which greater than 10% of the p7NC protein remained in its native form after the 10 minute incubation with reagent; very slow: “Very slow” reactions are those in which greater than 50% of the p7NC protein remained in its native form after the 10 minute incubation with reagent; fast: “Fast” reactions result in complete transformation of the p7NC protein to non-native conformations during the 10 minute incubation period
Conditions: for Protein (HPLC): reaction products / Protein (HPLC): reaction rate: 63 μM p7NC, 6 reagent : 1 protein, 10 minutes
Source text: Highly purified retroviral NC proteins can be produced by expression from vectors generated through recombinant DNA technology. These proteins when reconstituted with zinc (see, Summers, et al., Protein Science 1:563–567 (1992) for methods), provide the source of the NC proteins containing the zinc fingers that are the targets for attack by the compounds of this invention. When the zinc fingers in NC proteins react with identified compounds, the reaction produces a covalent change in the NC protein, and the modified protein can be separated from the unreacted protein by, for example, reversed phase HPLC.
Samples of p7NC and apo-p7 were reacted with varying amounts of cupric chloride and resulting products separated by HPLC. The reactions were carried out using 44.3 μM protein (p7NC or apo-p7) in 0.1 M Tris-HCl, pH 7.4, for 6 minutes at room temperature with varying concentrations of CuCl2 to achieve the indicated ratios of reactants, in a final volume of 0.7 ml. Chromatography was carried out on the resulting products at pH 2 (0.05% trifluoroacetic acid) on μBondapak™ C-18 (3.9×300 mm) at 1.0 ml/minute using an acetonitrile gradient (0–17%, 20 ml; 17–20%, 60 ml; 20–60%, 10 ml). Elution positions of unreacted protein (p7NC or apo-p7) are indicated as apo-p7.
A two-fold excess of NOBA was reacted with p7NC, and the products were separated by HPLC (FIG. 10) as described above for Cu^+2 and p7NC. Elution positions for the reactants (NOBA and unreacted p7NC) and products, reacted p7NC, NOBA, HABA and AzoxyBA are indicated and an elution profile is included in FIG. 10. NOBA and AzoxyBA were supplied by Octamer, Inc. (Mill Valley, Calif.) and used as HPLC standards.
The disulfide reagent of choice (each available from the Aldrich Chemical Company (Milwaukee, Wis.)) was incubated for 10 minutes with purified p7NC protein (63 μM) at a ratio of 6 molecules of reagent to 1 molecule of NC protein (there are 6 cysteine thiols per NC protein). The formation of non-native protein conformations was monitored by HPLC as described above. […] Generally, the inactivation proceeds by formation of non-native, intra-protein disulfide links (designated “Disulfides”), but some of the reagents form adducts with the cysteine residues as well (designated “Adducts”). “Slow” reactions are those in which greater than 10% of the p7NC protein remained in its native form after the 10 minute incubation with reagent. “Very slow” reactions are those in which greater than 50% of the p7NC protein remained in its native form after the 10 minute incubation with reagent. “Fast” reactions result in complete transformation of the p7NC protein to non-native conformations during the 10 minute incubation period.

Row | SMILES | Protein (HPLC): reaction products | Protein (HPLC): reaction rate | reaction with purified p7NC (HPLC), in words | p7NC species in non-native conformations (after a 10 minute incubation)
1 | CC(=O)Nc1ccc(SSc2ccc(NC(C)=O)cc2)cc1 [4-Acetamidophenyl Disulfide] | Disulfides | (slow) (“Slow” reactions are those in which greater than 10% of the p7NC protein remained in its native form after the 10 minute incubation with reagent) | – | –
2 | CCN(CC)CCSSCCN(CC)CC [2-(Diethylamino)ethyl Disulfide] | Disulfides | – | – | –
3 | CCOC(=O)Nc1ccccc1SSc1ccccc1NC(=O)OCC [2-(Ethoxycarboxamido)phenyl Disulfide] | Disulfides; also recorded: Adducts | – | – | –
4 | O=[N+]([O-])c1ccc(Cl)c(SSc2cc([N+](=O)[O-])ccc2Cl)c1 [2-Chloro-5-Nitrophenyl Disulfide] | Disulfides | – | – | –
5 | Nc1ccccc1SSc1ccccc1N [2-Aminophenyl Disulfide] | Disulfides; also recorded: Adducts | (slow) (“Slow” reactions are those in which greater than 10% of the p7NC protein remained in its native form after the 10 minute incubation with reagent) | – | –
6 | O=[N+]([O-])c1cccc(SSc2cccc([N+](=O)[O-])c2)c1 [3-Nitrophenyl Disulfide] | Disulfides | – | – | –
7 | c1cc(SSc2ccncc2)ccn1 [Aldrithiol-4] | Disulfides | – | – | –
8 | CC(=O)Nc1ccccc1SSc1ccccc1NC(C)=O [2-Acetamidophenyl Disulfide] | Disulfides; also recorded: (Adducts) | – | – | –
9 | O=[N+]([O-])c1ccc(SSc2ccc([N+](=O)[O-])cc2)cc1 [4-Nitrophenyl Disulfide] | Disulfides; also recorded: Adducts | (slow) (“Slow” reactions are those in which greater than 10% of the p7NC protein remained in its native form after the 10 minute incubation with reagent) | – | –
10 | CCN1C(=O)C=CC1=O [NEM, N-ethylmaleimide] | – | – | form adducts with the p7NC protein | –
11 | NC(=O)SCC(=O)NNc1ccccc1 [2-(Carbamoylthio)-Acetic Acid 2-Phenylhydrazide] | – | – | caused intra-chain disulfide formation | most
12 | CS(=O)(=O)c1ccc(SSc2ccc(S(C)(=O)=O)cc2[N+](=O)[O-])c([N+](=O)[O-])c1 [4-Methylsulfonyl-2-Nitrophenyl Disulfide] | Disulfides | – | – | –
13 | Clc1cc(Cl)c(SSc2cc(Cl)c(Cl)cc2Cl)cc1Cl [2,4,5-Trichlorophenyl Disulfide] | Disulfides | – | – | –
14 | CCOC(=S)SSC(=S)OCC [O,O-Diethyl Dithiobis-(Thioformate)] | Disulfides; also recorded: Adducts | – | – | –
15 | O=[N+]([O-])c1cc(SSc2ccc(Cl)c([N+](=O)[O-])c2)ccc1Cl [4-Chloro-3-Nitrophenyl Disulfide] | Disulfides; also recorded: Adducts | – | – | –
16 | c1ccc2nc(SSc3ccc4ccccc4n3)ccc2c1 [2-Quinolyl Disulfide] | Disulfides; also recorded: Adducts | (slow) (“Slow” reactions are those in which greater than 10% of the p7NC protein remained in its native form after the 10 minute incubation with reagent) | – | –
17 | Cc1cc(SSc2cc(C)c3ccccc3n2)nc2ccccc12 [4-Methyl-2-Quinolyl Disulfide] | Disulfides; also recorded: Adducts | (slow) (“Slow” reactions are those in which greater than 10% of the p7NC protein remained in its native form after the 10 minute incubation with reagent) | – | –
18 | Cc1ccc(SSc2ccc([N+](=O)[O-])cc2)cc1 [4-Nitrophenyl p-Tolyl Disulfide] | Disulfides; also recorded: Adducts | (slow) (“Slow” reactions are those in which greater than 10% of the p7NC protein remained in its native form after the 10 minute incubation with reagent) | – | –
19 | COc1cccc(SSc2cccc(OC)c2OC)c1OC [2,3-Dimethoxyphenyl Disulfide] | Adducts | – | – | –
20 | CSSC(=O)c1ccccc1 [Benzoylmethyl Disulfide] | Adducts | – | – | –
21 | Nc1c(SSc2ccc3ccccc3c2N)ccc2ccccc12 [2,2-Dithiobis(1-Naphtylamine)] | Disulfides; also recorded: Adducts | (fast) | – | –
22 | Cc1ccc([S+]([O-])[S+]([O-])c2ccc(C)cc2)cc1 (stereo not drawn) [p-Tolyl Disulfoxide] | Disulfides | (slow) (“Slow” reactions are those in which greater than 10% of the p7NC protein remained in its native form after the 10 minute incubation with reagent) | – | –
23 | Cc1ccc(SSc2ccc([N+](=O)[O-])cc2[N+](=O)[O-])cc1 [2,4-Dinitrophenyl p-Tolyl Disulfide] | Disulfides; also recorded: Adducts | (fast) | – | –
24 | Nc1cc(Cl)ccc1SSc1ccc(Cl)cc1N [2-Amino-4-Chlorophenyl Disulfide] | Disulfides; also recorded: Adducts | (fast) | – | –
25 | O=C(O)c1cc(SSc2ccc([N+](=O)[O-])c(C(=O)O)c2)ccc1[N+](=O)[O-] [5,5-Dithiobis(2-Nitrobenzoic Acid)] | Disulfides; also recorded: Adducts | (fast) | – | –
26 | O[C@@H]1CSSC[C@H]1O (relative stereo) [Trans-1,2-Dithiane-4,5-Diol] | Disulfides | (slow) (“Slow” reactions are those in which greater than 10% of the p7NC protein remained in its native form after the 10 minute incubation with reagent) | – | –
27 | O=C(O)CCSSCCC(=O)O [3,3-Dithiodipropionic Acid] | Disulfides | (slow) (“Slow” reactions are those in which greater than 10% of the p7NC protein remained in its native form after the 10 minute incubation with reagent) | – | –
28 | CC(C)OC(=S)SSC(=S)OC(C)C [Isopropylxanthic Disulfide] | Disulfides | – | – | –
